Test results taken from patent publication US9073893B2, “3-Oxo-2,3-dihydro-1H-indazole-4-carboxamide derivatives as PARP-1 inhibitors” (priority 2011, dated 2015).
Blank lines part the entries; values can stand above or below the molecule they belong to.

Key:
[1] = target: PARP-3 (Homo sapiens (Human), UniProt Q9Y6F1); conditions: probe P1; for DC50: read-out: PARP-3 (DC50 μM); for Kd: read-out: PARP-3 (Kd μM)
Experimental: (§1) Affinity evaluation of the tested compounds and their selectivity with respect to the different PARP isoforms of interest was assessed in a displacement assay.
(§2) a) providing a reaction mixture containing:
(§3) the PARP protein isoform under investigation,
a compound of formula (IP):
(§4) wherein R11 is hydrogen or a methyl group, B is (CH2)n—NH group wherein n is 2 to 6; m is 0 or 1 and X^− is a counterion, and
serial dilutions of the test compound;
(§5) b) comparing the polarization signal generated in the absence of the test compound with the one generated in the presence of different concentrations of the test compound, and
(§6) c) evaluating the ability of the test compound to displace the compound of formula (IP) as defined above indicated from a decreased fluorescence polarization level.
(§7) The 5H-phenanthridin-6-one-derived probe (IP) was selected for its capability of binding to the PARP proteins, both encompassing full-length native proteins and fragment thereof.
(§8) The polarization signal can be measured, e.g., by a plate reader such as the Saphire2 (Tecan). Data analysis was performed, e.g., by using the Dynafit software. Displacement data were also fitted, e.g., by using Excel spreadsheet (Microsoft Inc. Seattle, USA) to a four parameter logistic model (4PL), or Hill-Slope model. The assay was used to test compounds of the present invention. […] Specific probes of formula (IP) used in the assay are: • P1. 9-Dimethylamino-11,11-dimethyl-1-(3-{methyl-[(6-oxo-5,6-dihydro-phenanthridin-2-ylcarbamoyl)-methyl]-carbamoyl}-propyl)-2,3,4,11-tetrahydro-naphtho[2,3-g]quinolinium trifluoroacetate; • P2. 9-Dimethylamino-11,11-dimethyl-1-[3-(3-{[(6-oxo-5,6-dihydro-phenanthridin-2-ylcarbamoyl)-methyl]-amino}-propylcarbamoyl)-propyl]-2,3,4,11-tetrahydro-naphtho[2,3-g]quinolinium trifluoroacetate; • P3. 9-Dimethylamino-11,11-dimethyl-1-[3-(6-{[(6-oxo-5,6-dihydro-phenanthridin-2-ylcarbamoyl)-methyl]-amino}-hexylcarbamoyl)-propyl]-2,3,4,11-tetrahydro-naphtho[2,3-g]quinolinium trifluoroacetate.

[2] = system: Capan-1 human pancreatic cancer tumors
Experimental: Fragments of Capan-1 human pancreatic cancer tumors were implanted subcutaneously. […] Each group included seven animals. The treatment started one day after randomization. Compounds of formula (I) were administered by oral route as a methocel suspension. Tumor dimension was measured regularly by calipers during the experiments and tumor mass was calculated as described in Simeoni M. et al., Cancer Res 2004, 64, 1094-1101.
Temozolomide was administered by oral route at the dose of 50 mg/kg on days 3, 4, 5, 6, 7 and 8. Tumor growth and body weight were measured every 3 days. Tumor growth was assessed by caliper. The two diameters were recorded and the tumor weight was calculated according to the following formula: length (mm)×width^2/2. […] This delay (T−C value) was defined as the difference of time (in days) required for the treatment group (T) and the control group (C) tumors to reach a predetermined size (1 g). Toxicity was evaluated on the basis of body weight reduction and animal survival rate.

[3] = Pharmacokinetics and oral bioavailability in the mouse; assay type: in vivo; conditions: for clearance / Vd / AUC / half-life: male, Balb, Nu/Nu, plasma; for clearance / Vd: IV bolus 10 mg/kg; for clearance / Vd / AUC / half-life / C-max (oral): mean; for clearance: read-out: CL (IV bolus); for Vd: read-out: Vdss (IV bolus); for AUC / half-life / C-max (oral): oral 10 mg/kg; for half-life: read-out: T½ (oral) (converted); for F on AUC: oral vs IV dose-normalized AUC, 10 mg/kg
Experimental: A single administration at the dose of 10 mg/kg was given and three male animals for each route were used. […] After capping and vortex mixing, the plate was centrifuged for 15 minutes at 4000 rpm. The supernatant was considered as final extract and injected onto the LC-MS-MS system (UPLC system: Waters Acquity using BEH C18 50*2.1 mm 1.7 μm analytical column; MS instrument: Waters TQD equipped with Electro-Spray source operating in positive ion mode). Lower limit of quantification is 5.0 ng/mL, upper limit of quantification is 5000 ng/mL. Non-compartmental method (linear trapezoidal rule and linear regression analysis of natural log-transformed plasma concentrations vs. time data) was used. Absolute bioavailability (F) was calculated from the ratio of average oral to IV (intravenous) dose-normalized plasma AUC (area under curve) values.

[4] = target: PARP-2 (Homo sapiens (Human), UniProt Q9UGN5); conditions: probe P1; for DC50: read-out: PARP-2 (DC50 μM); for Kd: read-out: PARP-2 (Kd μM)
Chain of PARP-2 (Q9UGN5 whole entry): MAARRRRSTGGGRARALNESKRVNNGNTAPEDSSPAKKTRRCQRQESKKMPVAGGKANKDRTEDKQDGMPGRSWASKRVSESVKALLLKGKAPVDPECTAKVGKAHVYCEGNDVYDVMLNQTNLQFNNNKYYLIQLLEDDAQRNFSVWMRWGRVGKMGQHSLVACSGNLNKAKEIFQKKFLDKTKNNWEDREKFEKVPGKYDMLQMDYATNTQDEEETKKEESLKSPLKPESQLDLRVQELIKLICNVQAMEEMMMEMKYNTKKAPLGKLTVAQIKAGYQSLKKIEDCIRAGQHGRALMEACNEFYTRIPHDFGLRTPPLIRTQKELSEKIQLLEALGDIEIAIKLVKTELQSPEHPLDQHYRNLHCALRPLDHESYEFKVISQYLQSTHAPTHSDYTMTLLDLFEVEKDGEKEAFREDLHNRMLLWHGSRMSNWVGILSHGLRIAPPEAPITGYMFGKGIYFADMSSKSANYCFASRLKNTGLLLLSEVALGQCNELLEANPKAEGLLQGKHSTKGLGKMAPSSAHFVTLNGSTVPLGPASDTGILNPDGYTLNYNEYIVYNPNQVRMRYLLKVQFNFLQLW
Experimental: as §1, §2, §3
a compound of formula (IP):
as §4
serial dilutions of the test compound;
as §5, §6, §7, §8

[5] = system: hydrogen peroxide induced PAR formation in HeLa cells; assay: cells; conditions: Homo sapiens, read-out: PAR assay (IC50 μM)
Experimental: Cellular activity of PARP-1 inhibitors was assessed by measuring the inhibition of the hydrogen peroxide induced PAR formation in HeLa cells (ECACC). Cellular PAR levels were measured by immunocytochemistry, and quantified using an ArrayScan vTi instrument (Cellomics Thermo Scientific).
Studies were performed as follows: 6000 cells/well were seeded in 96 well plates (Perkin Elmer) in MEM/10% FCS and incubated for 24 hours at 37° C., 5% carbon dioxide. Test compounds were then added at the required concentration for 30 minutes. DNA damage was then induced adding hydrogen peroxide at the concentration of 0.1 mM for 15 minutes. Concentration curves were prepared in MEM/10% FCS from compound stocks in DMSO, and final DMSO concentration was 0.002% (v/v). Duplicate wells for each concentration point were prepared with a typical highest compound concentration of 20 μM and serial dilution 1:3. Plates were dried and fixed adding cold methanol-acetone (70:30) solution for 15 minutes at room temperature, fixing solution was aspired and wells were air dried for 5 minutes and then dehydrated in PBS. Non-specific binding sites were blocked by incubating wells for 30 minutes in PBS containing 5% (w/v) FBS 0.05% tween20. Wells were then incubated for 1 hour at room temperature in PBS containing anti PAR mouse monoclonal antibody (Anti-PAR, Mouse mAb 10H, Tulip Cat N° 1020) diluted 1:200 in blocking solution. After 3 washes in PBS, wells incubated in PBS (w/v) 5% FBS 0.05% Tween20 containing 2 μg/mL Cy2-conjugated Goat anti mouse secondary antibody (Amersham Pharmacia Biotech cat. N° PA 42002) (Absorption maximum 489 nm fluorescence maximum 506 nm) and 1 μg/mL DAPI (Absorption maximum 359 nm fluorescence maximum 461 nm) (4′,6-diamidino-2-phenyindole dilactate) (Sigma cat. N° D9564), a high sensitivity dye for nucleic acid staining. After washing further 3 times in PBS, cellular PAR immunoreactivity was assessed using the ArrayScan vTi instrument, with a Zeiss 10×0.5 N.A. objective, and applying the Cytotoxicity. V3 algorithm (Cellomics/Thermo Fisher) with a XF100 filter. At least 10 fields, corresponding to at least 900 cells, were read for each well.
X is the logarithm of concentration, IC50 is the response; IC50 starts at bottom and goes to top with a sigmoid shape.

[6] = target: PARP-1 (Homo sapiens (Human), UniProt P09874); conditions: for DC50: read-out: PARP-1 (DC50 μM), probe P1, <0.25 = assay sensitivity limit; for Kd: read-out: PARP-1 (Kd μM), probe P3, <0.01 = assay sensitivity limit
Chain of PARP-1 (P09874 whole entry): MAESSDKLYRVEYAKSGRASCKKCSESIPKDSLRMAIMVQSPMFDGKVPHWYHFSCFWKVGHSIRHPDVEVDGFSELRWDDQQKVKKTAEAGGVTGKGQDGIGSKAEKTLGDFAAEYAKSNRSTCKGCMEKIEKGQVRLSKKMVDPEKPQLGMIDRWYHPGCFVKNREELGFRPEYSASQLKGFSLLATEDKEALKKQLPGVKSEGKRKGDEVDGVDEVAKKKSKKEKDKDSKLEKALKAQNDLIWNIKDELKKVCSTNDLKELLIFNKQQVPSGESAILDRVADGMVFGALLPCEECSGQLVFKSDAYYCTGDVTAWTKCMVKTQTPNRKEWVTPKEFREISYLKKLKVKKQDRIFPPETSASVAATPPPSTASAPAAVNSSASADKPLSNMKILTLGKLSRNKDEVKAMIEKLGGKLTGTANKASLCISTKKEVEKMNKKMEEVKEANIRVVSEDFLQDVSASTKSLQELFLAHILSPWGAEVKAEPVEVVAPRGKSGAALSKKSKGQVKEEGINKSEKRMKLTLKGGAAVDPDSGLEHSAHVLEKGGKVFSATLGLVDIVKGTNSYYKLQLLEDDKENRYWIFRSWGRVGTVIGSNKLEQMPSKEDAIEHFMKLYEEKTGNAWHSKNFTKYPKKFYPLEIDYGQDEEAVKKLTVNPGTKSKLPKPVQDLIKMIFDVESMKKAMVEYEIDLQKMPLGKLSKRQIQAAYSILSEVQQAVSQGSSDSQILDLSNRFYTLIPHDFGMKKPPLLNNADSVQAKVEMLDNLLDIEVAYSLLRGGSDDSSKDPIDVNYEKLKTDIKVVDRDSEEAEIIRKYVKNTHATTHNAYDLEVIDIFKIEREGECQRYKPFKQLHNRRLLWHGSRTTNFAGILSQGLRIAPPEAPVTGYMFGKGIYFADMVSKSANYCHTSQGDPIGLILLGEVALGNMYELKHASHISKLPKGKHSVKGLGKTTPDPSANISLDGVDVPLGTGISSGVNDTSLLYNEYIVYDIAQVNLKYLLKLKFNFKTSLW
Experimental: as §1, §2, §3
a compound of formula (IP):
as §4
serial dilutions of the test compound;
as §5, §6, §7, §8

[7] = system: ovarian cancer patients with confirmed BRCA-1 mutations; conditions: phase I, monotherapy, preliminary data; cited from earlier work
[8] = temozolomide alone 50 mg/kg oral, days 3-8

Chain of PARP-3 (Q9Y6F1 whole entry): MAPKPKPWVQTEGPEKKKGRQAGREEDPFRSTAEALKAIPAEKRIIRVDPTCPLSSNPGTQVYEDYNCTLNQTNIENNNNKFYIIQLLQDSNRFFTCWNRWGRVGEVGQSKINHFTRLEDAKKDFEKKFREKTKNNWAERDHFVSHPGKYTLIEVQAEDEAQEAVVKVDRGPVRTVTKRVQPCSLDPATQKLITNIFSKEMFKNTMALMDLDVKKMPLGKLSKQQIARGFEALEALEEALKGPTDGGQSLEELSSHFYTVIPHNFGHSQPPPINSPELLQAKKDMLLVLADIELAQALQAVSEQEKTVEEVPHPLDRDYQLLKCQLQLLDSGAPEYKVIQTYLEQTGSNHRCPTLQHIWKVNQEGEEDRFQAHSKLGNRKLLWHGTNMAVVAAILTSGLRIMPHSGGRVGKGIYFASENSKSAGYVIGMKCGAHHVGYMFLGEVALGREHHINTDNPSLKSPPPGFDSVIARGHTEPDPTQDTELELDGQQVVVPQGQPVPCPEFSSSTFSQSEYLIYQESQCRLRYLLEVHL

SMILES: NC(=O)c1cccc2[nH]n(C3CCN(C4CCCCC4)CC3)c(=O)c12 [Compound 3, 2-(1-cyclohexylpiperidin-4-yl)-3-oxo-2,3-dihydro-1H-indazole-4-carboxamide]
- DC50 [1]: > 10 µM
- T-C (days) ([2]; cpd 3 200 mg/kg oral days 1-12 + temozolomide 50 mg/kg oral days 3-8, time to reach 1 g): superior
- clearance [3]: 1.07 L/h/kg
- Vd [3]: 1.3 L/kg
- AUC [3]: 14.3 µM·h
- half-life [3]: 1.77 h
- C-max (oral) [3]: 5.6 µM
- F on AUC [3]: 67%
- DC50 [4]: > 10 µM

SMILES: Cn1c2cccc(C(N)=O)c2c(=O)n1C1CCN(C2CCC(F)(F)CC2)CC1 [Compound 6, 2-[1-(4,4-difluorocyclohexyl)piperidin-4-yl]-1-methyl-3-oxo-2,3-dihydro-1H-indazole-4-carboxamide]
- DC50 [1]: 2.34 µM
- clearance [3]: 3.16 L/h/kg
- Vd [3]: 2.9 L/kg
- AUC [3]: 3.87 µM·h
- half-life [3]: 1.13 h
- C-max (oral) [3]: 3.07 µM
- F on AUC [3]: 49%
- DC50 [4]: 3.95 µM
- Kd [4]: 1.88 µM
- IC50 [5]: 0.1 µM
- DC50 [6]: < 0.25 µM
- Kd [6]: < 0.01 µM

SMILES: NC(=O)c1cccc2[nH]n(C3CCN(C4CCC(F)(F)CC4)CC3)c(=O)c12 [Compound 4, 2-[1-(4,4-difluorocyclohexyl)piperidin-4-yl]-3-oxo-2,3-dihydro-1H-indazole-4-carboxamide]
- DC50 [1]: > 10 µM
- DC50 [4]: > 10 µM

SMILES: NC(=O)c1cccc2[nH]n(C3CCNCC3)c(=O)c12 [Compound 1, 3-oxo-2-(piperidin-4-yl)-2,3-dihydro-1H-indazole-4-carboxamide]
- DC50 [1]: 0.58 µM
- DC50 [4]: 1.5 µM
- Kd [4]: 0.78 µM
- DC50 [6]: < 0.25 µM
- Kd [6]: 0.08 µM

SMILES: NC(=O)c1cccc2[nH]n(C3CCN(C4CCC4)CC3)c(=O)c12 [Compound 16, 2-(1-cyclobutylpiperidin-4-yl)-3-oxo-2,3-dihydro-1H-indazole-4-carboxamide]
- DC50 [1]: > 10 µM
- DC50 [4]: 2.57 µM

SMILES: Cn1nnc2c(C(N)=O)ncn2c1=O [temozolomide]
- BWL (%) [2, 8]: 2%
- Max TGI (%) [2, 8]: 13%
- Toxicity ([2]; temozolomide alone 50 mg/kg oral, days 3-8, seven animals per group): 0/7
- T-C ([2]; temozolomide alone 50 mg/kg oral, days 3-8, time to reach 1 g): 1 days

SMILES: Cn1c2cccc(C(N)=O)c2c(=O)n1C1CCN(C2CCC2)CC1 [Compound 18, 2-(1-cyclobutylpiperidin-4-yl)-1-methyl-3-oxo-2,3-dihydro-1H-indazole-4-carboxamide]
- DC50 [1]: 2.88 µM
- DC50 [4]: < 0.25 µM

SMILES: Cn1c2cccc(C(N)=O)c2c(=O)n1C1CCN(C2CCCCC2)CC1 [Compound 5, 2-(1-cyclohexylpiperidin-4-yl)-1-methyl-3-oxo-2,3-dihydro-1H-indazole-4-carboxamide]
- DC50 [1]: 2.15 µM
- clearance [3]: 2.46 L/h/kg
- Vd [3]: 4.3 L/kg
- AUC [3]: 10.6 µM·h
- half-life [3]: 1.89 h
- C-max (oral) [3]: 4.77 µM
- F on AUC [3]: 109%
- DC50 [4]: 0.91 µM
- Kd [4]: 0.54 µM

SMILES: Cn1c2cccc(C(N)=O)c2c(=O)n1C1CCNCC1 [Compound 9, 1-methyl-3-oxo-2-(piperidin-4-yl)-2,3-dihydro-1H-indazole-4-carboxamide]
- DC50 [1]: 0.45 µM
- DC50 [4]: < 0.25 µM
- Kd [4]: 0.14 µM
- IC50 [5]: 0.05 µM
- DC50 [6]: < 0.25 µM
- Kd [6]: 0.014 µM

SMILES: NC(=O)c1cccc2[nH]n(C3CCN(C4CCCC4)CC3)c(=O)c12 [Compound 2, 2-(1-cyclopentylpiperidin-4-yl)-3-oxo-2,3-dihydro-1H-indazole-4-carboxamide]
- DC50 [1]: > 10 µM
- DC50 [4]: 2 µM
- Kd [4]: 1.49 µM

SMILES: O=C(c1cc(Cc2n[nH]c(=O)c3ccccc23)ccc1F)N1CCN(C(=O)C2CC2)CC1 [Olaparib]
- partial responses [7]: 4 out of 10

SMILES: Cn1c2cccc(C(N)=O)c2c(=O)n1C1CCN(C2CCCC2)CC1 [Compound 7, 2-(1-cyclopentylpiperidin-4-yl)-1-methyl-3-oxo-2,3-dihydro-1H-indazole-4-carboxamide]
- DC50 [1]: 2.58 µM
- DC50 [4]: < 0.25 µM
- Kd [4]: 0.05 µM

SMILES: NC(=O)c1cc(F)cc2[nH]n(C3CCNCC3)c(=O)c12 [Compound 20, 6-fluoro-3-oxo-2-(piperidin-4-yl)-2,3-dihydro-1H-indazole-4-carboxamide]
- DC50 [1]: 0.25 µM
- Kd [1]: 0.05 µM
- DC50 [4]: 0.5 µM
- Kd [4]: 0.3 µM
- DC50 [6]: < 0.25 µM
- Kd [6]: < 0.01 µM

SMILES: CN1CCC(n2[nH]c3cccc(C(N)=O)c3c2=O)CC1 [Compound 8, 2-(1-methylpiperidin-4yl)-3-oxo-2,3-dihydro-1H-indazole-4-carboxamide]
- DC50 [1]: 2.75 µM
- DC50 [4]: < 0.25 µM
- Kd [4]: 0.04 µM
- IC50 [5]: 0.6 µM
- DC50 [6]: < 0.25 µM
- Kd [6]: 0.14 µM

SMILES: CC(C)N1CCC(n2c(=O)c3c(C(N)=O)cccc3n2C)CC1 [Compound 14, 1-methyl-3-oxo-2-[1-(propan-2-yl)piperidin-4-yl]-2,3-dihydro-1H-indazole-4-carboxamide]
- DC50 [1]: > 10 µM
- DC50 [4]: < 0.25 µM
- Kd [4]: 0.03 µM

Continued, values first:

- DC50 [1]: > 10 µM
- DC50 [4]: > 10 µM
SMILES: NC(=O)c1cccc2[nH]n(C3CCN(CC4CCCCC4)CC3)c(=O)c12 [Compound 31, 2-[1-(cyclohexylmethyl)piperidin-4-yl]-3-oxo-2,3-dihydro-1H-indazole-4-carboxamide]

- DC50 [1]: 0.46 µM
- DC50 [4]: > 10 µM
- IC50 [5]: 0.07 µM
- DC50 [6]: < 0.25 µM
- Kd [6]: 0.022 µM
SMILES: NC(=O)c1cccc2[nH]n(C3CCN(Cc4cccs4)CC3)c(=O)c12 [Compound 62, 3-oxo-2-[1-(thiophen-2-ylmethyl)piperidin-4-yl]-2,3-dihydro-1H-indazole-4-carboxamide]

- DC50 [1]: 1.78 µM
- clearance [3]: 3.23 L/h/kg
- Vd [3]: 3.4 L/kg
- AUC [3]: 4.06 µM·h
- half-life [3]: 1.16 h
- C-max (oral) [3]: 1.93 µM
- F on AUC [3]: 50%
- DC50 [4]: 4.19 µM
SMILES: Cn1c2cccc(C(N)=O)c2c(=O)n1C1CCN(CC2CC=CCC2)CC1 (stereo not drawn) [Compound 65, 2-[1-(cyclohex-3-en-1-ylmethyl)piperidin-4-yl]-1-methyl-3-oxo-2,3-dihydro-1H-indazole-4-carboxamide]

- DC50 [1]: 2.9 µM
- DC50 [4]: > 10 µM
SMILES: Cn1c2cccc(C(N)=O)c2c(=O)n1C1CCN(CC2CCCCC2)CC1 [Compound 33, 2-[1-(cyclohexylmethyl)piperidin-4-yl]-1-methyl-3-oxo-2,3-dihydro-1H-indazole-4-carboxamide]

- DC50 [1]: 0.58 µM
- DC50 [4]: > 10 µM
SMILES: NC(=O)c1cccc2[nH]n(C3CCN(Cc4ccco4)CC3)c(=O)c12 [Compound 66, 2-[1-(furan-2-ylmethyl)piperidin-4-yl]-3-oxo-2,3-dihydro-1H-indazole-4-carboxamide]

- DC50 [1]: > 10 µM
- DC50 [4]: > 10 µM
SMILES: NC(=O)c1cccc2[nH]n(C3CCN(CC4CC=CCC4)CC3)c(=O)c12 (stereo not drawn) [Compound 64, 2-[1-(cyclohex-3-en-1-ylmethyl)piperidin-4-yl]-3-oxo-2,3-dihydro-1H-indazole-4-carboxamide]

- DC50 [1]: 2.56 µM
- DC50 [4]: 2.29 µM
SMILES: Cn1c2cccc(C(N)=O)c2c(=O)n1C1CCN(Cc2ccco2)CC1 [Compound 67, 2-[1-(furan-2-ylmethyl)piperidin-4-yl]-1-methyl-3-oxo-2,3-dihydro-1H-indazole-4-carboxamide]

- DC50 [1]: 1.42 µM
- DC50 [4]: 3.56 µM
SMILES: Cn1c2cccc(C(N)=O)c2c(=O)n1C1CCN(Cc2cccs2)CC1 [Compound 63, 1-methyl-3-oxo-2-[1-(thiophen-2-ylmethyl)piperidin-4-yl]-2,3-dihydro-1H-indazole-4-carboxamide]

- DC50 [1]: 0.22 µM
- Kd [1]: 0.04 µM
- DC50 [4]: < 0.25 µM
- Kd [4]: 0.07 µM
- DC50 [6]: < 0.25 µM
- Kd [6]: < 0.01 µM
SMILES: Cn1c2cc(F)cc(C(N)=O)c2c(=O)n1C1CCNCC1 [Compound 21, 6-fluoro-1-methyl-3-oxo-2-(piperidin-4-yl)-2,3-dihydro-1H-indazole-4-carboxamide]

- DC50 [1]: > 10 µM
- DC50 [4]: 5.94 µM
- Kd [4]: 5 µM
SMILES: NC(=O)c1cc(F)cc2[nH]n(C3CCN(C4CCCCC4)CC3)c(=O)c12 [Compound 23, 2-(1-cyclohexylpiperidin-4-yl)-6-fluoro-3-oxo-2,3-dihydro-1H-indazole-4-carboxamide]

- DC50 [1]: 0.7 µM
- Kd [1]: 0.27 µM
- clearance [3]: 2.32 L/h/kg
- Vd [3]: 6.4 L/kg
- AUC [3]: 12.8 µM·h
- half-life [3]: 2.25 h
- C-max (oral) [3]: 4.72 µM
- F on AUC [3]: 150%
- DC50 [4]: 0.79 µM
- Kd [4]: 0.5 µM
SMILES: Cn1c2cc(F)cc(C(N)=O)c2c(=O)n1C1CCN(C2CCCCC2)CC1 [Compound 22, 2-(1-cyclohexylpiperidin-4-yl)-6-fluoro-1-methyl-3-oxo-2,3-dihydro-1H-indazole-4-carboxamide]
